Measured values reported in publication PMC5218480 (PLoS ONE, 2017).

Tested on: MV-4-11 cells
Test: Gene expression microarray analysis (Affymetrix PrimeView) and GSEA
Type: cell-based, human
Set-up: RFU PODN (11730768_x_at) / Fold change /veh PODN (11730768_x_at) / RFU LINC00158 (11744669_a_at) / Fold change /veh LINC00158 (11744669_a_at) / RFU DUSP10 (11751237_a_at) / Fold change /veh DUSP10 (11751237_a_at) / RFU ID3 (11757404_x_at) / Fold change /veh ID3 (11757404_x_at) / RFU PLEKHG5 (11737974_s_at) / Fold change /veh PLEKHG5 (11737974_s_at) / RFU LRRC4B (11730491_at) / Fold change /veh LRRC4B (11730491_at) / RFU GIMAP4 (11747438_a_at) / Fold change /veh GIMAP4 (11747438_a_at) / RFU KRT8 (11758183_x_at) / Fold change /veh KRT8 (11758183_x_at) / RFU CNN1 (11734310_a_at) / Fold change /veh CNN1 (11734310_a_at) / RFU VPS37D (11726825_at) / Fold change /veh VPS37D (11726825_at) / RFU C10orf10 (11716522_x_at) / Fold change /veh C10orf10 (11716522_x_at) / RFU KIR2DL2 /// KIR2DL4 /// KIR2DL5A /// KIR2DL5B /// KIR2DS1 /// KIR2DS2 /// KIR2DS3 /// KIR2DS4 /// KIR3DL3 /// KIR3DL3 /// KIR3DS1 (11738374_at) / Fold change /veh KIR2DL2 /// KIR2DL4 /// KIR2DL5A /// KIR2DL5B /// KIR2DS1 /// KIR2DS2 /// KIR2DS3 /// KIR2DS4 /// KIR3DL3 /// KIR3DL3 /// KIR3DS1 (11738374_at) / RFU C1QL1 (11718748_at) / Fold change /veh C1QL1 (11718748_at) / RFU TMPRSS4 (11747572_a_at) / Fold change /veh TMPRSS4 (11747572_a_at) / RFU HAMP (11756126_x_at) / Fold change /veh HAMP (11756126_x_at) / RFU RNFT2 (11725882_a_at) / Fold change /veh RNFT2 (11725882_a_at) / RFU NR4A2 (11747474_a_at) / Fold change /veh NR4A2 (11747474_a_at) / RFU ABCC12 (11746883_a_at) / Fold change /veh ABCC12 (11746883_a_at) / RFU TMEM136 (11760407_x_at) / Fold change /veh TMEM136 (11760407_x_at) / RFU CLDN22 /// WWC2 (11732394_at) / Fold change /veh CLDN22 /// WWC2 (11732394_at) / RFU HLA-DPB1 (11760878_x_at) / Fold change /veh HLA-DPB1 (11760878_x_at) / RFU SPINT1 (11716480_a_at) / Fold change /veh SPINT1 (11716480_a_at) / RFU GAP43 (11754022_s_at) / Fold change /veh GAP43 (11754022_s_at) / RFU A4GNT (11735810_at) / Fold change /veh A4GNT (11735810_at) / RFU PRB3 (11715151_x_at) / Fold change /veh PRB3 (11715151_x_at) / RFU TUBB4B (11761932_at) / Fold change /veh TUBB4B (11761932_at) / RFU CAPN14 (11732068_a_at) / Fold change /veh CAPN14 (11732068_a_at) / RFU TMCC2 (11721928_a_at) / Fold change /veh TMCC2 (11721928_a_at) / RFU IRGQ (11745062_a_at) / Fold change /veh IRGQ (11745062_a_at) / RFU FAM174B (11720279_a_at) / Fold change /veh FAM174B (11720279_a_at) / RFU TMPRSS4 (11748680_a_at) / Fold change /veh TMPRSS4 (11748680_a_at) / RFU FAM212B (11763350_a_at) / Fold change /veh FAM212B (11763350_a_at) / RFU PLEKHG5 (11743358_a_at) / Fold change /veh PLEKHG5 (11743358_a_at) / RFU ZSCAN30 (11745921_a_at) / Fold change /veh ZSCAN30 (11745921_a_at) / RFU CMKLR1 (11741424_a_at) / Fold change /veh CMKLR1 (11741424_a_at) / RFU LOC101060620 /// MAPK8IP1 (11723275_at) / Fold change /veh LOC101060620 /// MAPK8IP1 (11723275_at) / RFU SPTSSB (11747773_x_at) / Fold change /veh SPTSSB (11747773_x_at) / RFU PRSS12 (11739890_at) / Fold change /veh PRSS12 (11739890_at) / RFU BIN1 (11741810_x_at) / Fold change /veh BIN1 (11741810_x_at) / RFU WNT11 (11732464_a_at) / Fold change /veh WNT11 (11732464_a_at) / RFU C10orf10 (11716521_a_at) / Fold change /veh C10orf10 (11716521_a_at) / RFU C5orf56 (11738089_at) / Fold change /veh C5orf56 (11738089_at) / RFU CYB561 (11721691_x_at) / Fold change /veh CYB561 (11721691_x_at) / RFU ANKRD19P (11752326_a_at) / Fold change /veh ANKRD19P (11752326_a_at) / RFU OR2T12 /// OR2T33 /// OR2T8 (11738714_s_at) / Fold change /veh OR2T12 /// OR2T33 /// OR2T8 (11738714_s_at) / RFU VCAN (11748164_a_at) / Fold change /veh VCAN (11748164_a_at) / RFU JSRP1 (11732532_at) / Fold change /veh JSRP1 (11732532_at) / RFU KRTAP10-11 (11738290_x_at) / Fold change /veh KRTAP10-11 (11738290_x_at) / RFU MYO3A (11730013_a_at) / Fold change /veh MYO3A (11730013_a_at) / RFU EBF3 (11725865_a_at) / Fold change /veh EBF3 (11725865_a_at) / RFU CAMK2N1 (11719241_x_at) / Fold change /veh CAMK2N1 (11719241_x_at) / RFU C5orf56 (11738088_a_at) / Fold change /veh C5orf56 (11738088_a_at) / RFU OLFML3 (11715873_a_at) / Fold change /veh OLFML3 (11715873_a_at) / RFU LOC100653217 /// NTM (11731650_a_at) / Fold change /veh LOC100653217 /// NTM (11731650_a_at) / RFU MAPK11 (11762145_a_at) / Fold change /veh MAPK11 (11762145_a_at) / RFU FIZ1 (11724087_x_at) / Fold change /veh FIZ1 (11724087_x_at) / RFU OASL (11726364_x_at) / Fold change /veh OASL (11726364_x_at) / RFU SOX15 (11748057_x_at) / Fold change /veh SOX15 (11748057_x_at) / RFU CD79A (11719716_a_at) / Fold change /veh CD79A (11719716_a_at) / RFU HIST1H1D (11736915_at) / Fold change /veh HIST1H1D (11736915_at) / RFU CASKIN2 (11723855_a_at) / Fold change /veh CASKIN2 (11723855_a_at) / RFU LOC730098 (11760151_x_at) / Fold change /veh LOC730098 (11760151_x_at) / RFU OR4N2 (11742367_at) / Fold change /veh OR4N2 (11742367_at) / RFU PRRT2 (11749266_a_at) / Fold change /veh PRRT2 (11749266_a_at) / RFU SNX32 (11753110_a_at) / Fold change /veh SNX32 (11753110_a_at) / RFU CDHR5 (11726645_a_at) / Fold change /veh CDHR5 (11726645_a_at) / RFU RCAN1 (11760418_a_at) / Fold change /veh RCAN1 (11760418_a_at) / RFU FAM167A (11723789_a_at) / Fold change /veh FAM167A (11723789_a_at) / RFU FAM26E (11764081_at) / Fold change /veh FAM26E (11764081_at) / RFU ISYNA1 (11749810_s_at) / Fold change /veh ISYNA1 (11749810_s_at) / RFU ACY1 (11761880_at) / Fold change /veh ACY1 (11761880_at) / RFU 11764098_at / Fold change /veh 11764098_at / RFU SAMD14 (11745864_x_at) / Fold change /veh SAMD14 (11745864_x_at) / RFU NPB (11741838_a_at) / Fold change /veh NPB (11741838_a_at) / RFU TMPRSS6 (11731388_a_at) / Fold change /veh TMPRSS6 (11731388_a_at) / RFU KRTAP10-2 (11738614_at) / Fold change /veh KRTAP10-2 (11738614_at) / RFU ARHGAP8 /// PRR5-ARHGAP8 (11727945_x_at) / Fold change /veh ARHGAP8 /// PRR5-ARHGAP8 (11727945_x_at) / RFU KRTAP5-7 /// NADSYN1 (11734609_at) / Fold change /veh KRTAP5-7 /// NADSYN1 (11734609_at) / RFU RASL12 (11751679_a_at) / Fold change /veh RASL12 (11751679_a_at) / RFU CDKN2B (11736163_a_at) / Fold change /veh CDKN2B (11736163_a_at) / RFU PRF1 (11729649_at) / Fold change /veh PRF1 (11729649_at) / RFU, ZNF638 /// ZNF638-IT1 / Fold change vs veh, ZNF638 /// ZNF638-IT1 / RFU, PANK3 / Fold change vs veh, PANK3 / RFU, SH3YL1 / Fold change vs veh, SH3YL1 / RFU, ZEB2 / Fold change vs veh, ZEB2 / RFU, NRIP1 / Fold change vs veh, NRIP1 / RFU, PTTG1IP / Fold change vs veh, PTTG1IP / RFU, CAPN2 / Fold change vs veh, CAPN2 / RFU, MED14 / Fold change vs veh, MED14 / RFU, SNORA58 / Fold change vs veh, SNORA58 / RFU, C1orf63 / Fold change vs veh, C1orf63 / RFU, LRRFIP1 / Fold change vs veh, LRRFIP1 / RFU, NDUFAF7 / Fold change vs veh, NDUFAF7 / RFU, SLC12A2 / Fold change vs veh, SLC12A2 / RFU, IBTK / Fold change vs veh, IBTK / RFU, ESF1 / Fold change vs veh, ESF1 / Fold change vs veh, TMEM50B / RFU, TAOK1 / Fold change vs veh, TAOK1 / RFU, ACBD3 / Fold change vs veh, ACBD3 / RFU, TMA16 / Fold change vs veh, TMA16 / RFU, RWDD3 / Fold change vs veh, RWDD3 / RFU, BCAT1 / Fold change vs veh, BCAT1 / RFU, EDEM3 / Fold change vs veh, EDEM3 / RFU, TMEM33 / Fold change vs veh, TMEM33 / RFU, WDR75 / Fold change vs veh, WDR75 / RFU, AHCTF1 / Fold change vs veh, AHCTF1 / RFU, TFRC / Fold change vs veh, TFRC / RFU, ZDHHC17 / Fold change vs veh, ZDHHC17 / RFU, NOM1 / Fold change vs veh, NOM1 / RFU, ARL8B / Fold change vs veh, ARL8B / RFU, ZBTB11 / Fold change vs veh, ZBTB11 / RFU, TAMM41 / Fold change vs veh, TAMM41 / RFU, KIAA1704 /// LOC100996395 / Fold change vs veh, KIAA1704 /// LOC100996395 / RFU, ING1 / Fold change vs veh, ING1 / RFU, TRMT61B / Fold change vs veh, TRMT61B / RFU, FUBP3 / Fold change vs veh, FUBP3 / RFU, TP53 / Fold change vs veh, TP53 / RFU, TNKS2 / Fold change vs veh, TNKS2 / RFU, ZFP14 / Fold change vs veh, ZFP14 / RFU, ACTR2 / Fold change vs veh, ACTR2 / RFU, PPP3R1 / Fold change vs veh, PPP3R1 / RFU, PIK3R1 / Fold change vs veh, PIK3R1 / RFU, HNRNPA1 / Fold change vs veh, HNRNPA1 / RFU, RNF170 / Fold change vs veh, RNF170 / RFU, ZNF28 / Fold change vs veh, ZNF28 / RFU, RNGTT / Fold change vs veh, RNGTT / RFU, OGT / Fold change vs veh, OGT / RFU, BRD1 / Fold change vs veh, BRD1 / RFU, MARS / Fold change vs veh, MARS / RFU, ZNF655 / Fold change vs veh, ZNF655 / RFU, FAHD1 / Fold change vs veh, FAHD1 / RFU, BDP1 / Fold change vs veh, BDP1 / RFU, LRRCC1 / Fold change vs veh, LRRCC1 / RFU, ARID1A / Fold change vs veh, ARID1A / RFU, ZNF146 / Fold change vs veh, ZNF146 / RFU, ZNF330 / Fold change vs veh, ZNF330 / RFU, GPN3 / Fold change vs veh, GPN3 / RFU, C9orf123 / Fold change vs veh, C9orf123 / RFU, N4BP2L2 / Fold change vs veh, N4BP2L2 / RFU, ARFIP1 / Fold change vs veh, ARFIP1 / RFU, FAM179B / Fold change vs veh, FAM179B / RFU, BCL10 / Fold change vs veh, BCL10 / RFU, UHRF1BP1L / Fold change vs veh, UHRF1BP1L / RFU, BET1 / Fold change vs veh, BET1 / RFU, CNOT2 / Fold change vs veh, CNOT2 / RFU, ZNF268 / Fold change vs veh, ZNF268 / Fold change vs veh, ZNF507 / RFU, DGCR2 / Fold change vs veh, DGCR2 / RFU, WDSUB1 / Fold change vs veh, WDSUB1 / Fold change vs veh, HSP90B1 /// MIR3652 / RFU, ADSS / Fold change vs veh, ADSS / RFU, GK / Fold change vs veh, GK / RFU, ZNF148 / Fold change vs veh, ZNF148 / RFU, TAF9 / Fold change vs veh, TAF9 / RFU, SLC1A5 / Fold change vs veh, SLC1A5 / RFU, SLMO2 / Fold change vs veh, SLMO2 / RFU, ABCC4 / Fold change vs veh, ABCC4 / RFU, LOC101060439 /// RAP1B / Fold change vs veh, LOC101060439 /// RAP1B / RFU, RFX7 / Fold change vs veh, RFX7 / RFU, GTPBP10 / Fold change vs veh, GTPBP10 / RFU, CNEP1R1 / Fold change vs veh, CNEP1R1 / RFU, BIVM-ERCC5 /// ERCC5 / Fold change vs veh, BIVM-ERCC5 /// ERCC5 / RFU, ILF3 / Fold change vs veh, ILF3 / RFU 11762660_at / Fold change /veh 11762660_at / RFU VCAN (11757783_s_at) / Fold change /veh VCAN (11757783_s_at) / RFU DDX43 (11728927_at) / Fold change /veh DDX43 (11728927_at) / RFU KRT8 (11758188_x_at) / Fold change /veh KRT8 (11758188_x_at) / RFU NKD1 (11759106_at) / Fold change /veh NKD1 (11759106_at) / RFU SRD5A1 (11742802_a_at) / Fold change /veh SRD5A1 (11742802_a_at) / RFU TPSAB1 /// TPSB2 (11721975_s_at) / Fold change /veh TPSAB1 /// TPSB2 (11721975_s_at) / RFU GSTM3 (11746129_a_at) / Fold change /veh GSTM3 (11746129_a_at) / RFU IL23R (11737362_x_at) / Fold change /veh IL23R (11737362_x_at) / RFU TMEM51 (11727254_a_at) / Fold change /veh TMEM51 (11727254_a_at) / RFU PIWIL2 (11732686_x_at) / Fold change /veh PIWIL2 (11732686_x_at) / RFU ORM1 (11744905_x_at) / Fold change /veh ORM1 (11744905_x_at) / RFU CCDC152 (11743942_at) / Fold change /veh CCDC152 (11743942_at) / RFU ECM1 (11717891_a_at) / Fold change /veh ECM1 (11717891_a_at) / RFU IL23R (11748794_a_at) / Fold change /veh IL23R (11748794_a_at) / RFU TNFAIP8L3 (11732012_x_at) / Fold change /veh TNFAIP8L3 (11732012_x_at) / RFU MBOAT4 (11741988_at) / Fold change /veh MBOAT4 (11741988_at) / RFU 11764193_at / Fold change /veh 11764193_at / RFU TMEM53 (11763286_at) / Fold change /veh TMEM53 (11763286_at) / RFU MAGEB2 (11727129_at) / Fold change /veh MAGEB2 (11727129_at) / RFU TMEM200A (11744735_a_at) / Fold change /veh TMEM200A (11744735_a_at) / RFU CCDC152 (11751479_a_at) / Fold change /veh CCDC152 (11751479_a_at) / RFU FAM211A (11726209_a_at) / Fold change /veh FAM211A (11726209_a_at) / RFU RGS16 (11746705_a_at) / Fold change /veh RGS16 (11746705_a_at) / RFU VCAN (11755009_s_at) / Fold change /veh VCAN (11755009_s_at) / RFU RHOB (11743442_s_at) / Fold change /veh RHOB (11743442_s_at) / RFU RGS16 (11720943_a_at) / Fold change /veh RGS16 (11720943_a_at) / RFU RGS16 (11720944_at) / Fold change /veh RGS16 (11720944_at) / RFU, VPS4B / Fold change vs veh, VPS4B / RFU, CREB1 / Fold change vs veh, CREB1 / RFU, DNAJC13 / Fold change vs veh, DNAJC13 / RFU, GNAQ / Fold change vs veh, GNAQ / RFU, CDK5R1 / Fold change vs veh, CDK5R1 / RFU, ZRANB3 / Fold change vs veh, ZRANB3 / RFU, CUL4A / Fold change vs veh, CUL4A / RFU, CCNY / Fold change vs veh, CCNY / RFU, UFL1 / Fold change vs veh, UFL1 / RFU, COG3 / Fold change vs veh, COG3 / RFU, DIAPH2 / Fold change vs veh, DIAPH2 / RFU, SKA2 / Fold change vs veh, SKA2 / RFU, AFF3 / Fold change vs veh, AFF3 / RFU, LMF1 / Fold change vs veh, LMF1 / RFU, IPO11 / Fold change vs veh, IPO11 / RFU, DFFB / Fold change vs veh, DFFB / RFU, FOXP1 / Fold change vs veh, FOXP1 / RFU, CARD8 / Fold change vs veh, CARD8 / RFU, STRN3 / Fold change vs veh, STRN3 / RFU, ADK / Fold change vs veh, ADK / RFU, RASSF2 / Fold change vs veh, RASSF2 / RFU, WIPF1 / Fold change vs veh, WIPF1 / RFU, LARP1B / Fold change vs veh, LARP1B / RFU, RASA1 / Fold change vs veh, RASA1 / RFU, RB1 / Fold change vs veh, RB1 / RFU, PPFIA1 / Fold change vs veh, PPFIA1 / RFU, MAT2A / Fold change vs veh, MAT2A / RFU, CCT5 / Fold change vs veh, CCT5 / RFU, WDR92 / Fold change vs veh, WDR92 / RFU, CUX1 / Fold change vs veh, CUX1 / RFU, TTC7A / Fold change vs veh, TTC7A / RFU, TMEM135 / Fold change vs veh, TMEM135 / RFU, DEPTOR / Fold change vs veh, DEPTOR / RFU, CPM / Fold change vs veh, CPM / RFU, DNAJB6 / Fold change vs veh, DNAJB6 / RFU, CACNA2D3 / Fold change vs veh, CACNA2D3 / RFU, DTX4 / Fold change vs veh, DTX4 / RFU, TFCP2 / Fold change vs veh, TFCP2 / RFU, GMCL1 /// GMCL1P1 / Fold change vs veh, GMCL1 /// GMCL1P1 / RFU, AEBP2 / Fold change vs veh, AEBP2 / RFU, SNHG1 /// SNORD22 /// SNORD25 /// SNORD26 /// SNORD27 /// SNORD28 /// SNORD29 /// SNORD31 / Fold change vs veh, SNHG1 /// SNORD22 /// SNORD25 /// SNORD26 /// SNORD27 /// SNORD28 /// SNORD29 /// SNORD31 / Fold change (Aza/veh), C12orf56 (ProbeSet 11735607_a_at) / Fold change (ACY-1035/veh), C12orf56 (ProbeSet 11735607_a_at) / Fold change (Aza/veh), FGFR1OP (ProbeSet 11751329_s_at) / Fold change (ACY-1035/veh), FGFR1OP (ProbeSet 11751329_s_at) / Fold change (Aza/veh), VPS36 (ProbeSet 11739960_a_at) / Fold change (ACY-1035/veh), VPS36 (ProbeSet 11739960_a_at) / RFU SYPL1 (11715823_x_at) / Fold change /veh SYPL1 (11715823_x_at) / RFU IGFBP7 (11715501_s_at) / Fold change /veh IGFBP7 (11715501_s_at) / RFU REEP3 (11722064_at) / Fold change /veh REEP3 (11722064_at) / RFU IGLL1 (11728026_x_at) / Fold change /veh IGLL1 (11728026_x_at): dose or concentration left out as unconfirmed
Conditions: MV-4-11 cells, 48 hours

Compound: Nc1ccc(-c2cccs2)cc1NC(=O)c1ccc2c(c1)cc(C1CC1)n2CCN1CCOCC1 [ACY-1035]
- Fold change /veh PIWIL2 (11732686_x_at): 0.84
